Legend:
Test in all cases: relative viability (nuclei count vs DMSO), 5 days (fraction); higher = more cells survive
[1] = compound: C1=CC=C2C(=C1)N=C(S2)C(C#N)C3=NC(=NC=C3)NCCC4=CN=CC=C4 + NC(=O)Nc1cc(-c2cccc(F)c2)sc1C(=O)N[C@H]1CCCNC1 [AZD7762] (partner 0.2 µM)
Procedure, shortened: (§1)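 For relative viability, nuclei counts in treated wells were divided by those in vehicle wells. Lung cancer cell lines had been pin-tool dosed in 1536-well plates the day after seeding and cultured for 5 days, then fixed and stained in one step (final 0.05% Triton X-100, 1% formaldehyde, 1 ug/ml Hoechst) and imaged at 4×. Doses were one drug alone or a fixed anchor-drug dose plus five library-drug doses (not always all listed) in √10 steps, and values are duplicate-plate medians.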

Vandetanib + Alpelisib = compound: COc1cc2/c(=N/c3ccc(Br)cc3F)nc[nH]c2cc1OCC1CCN(C)CC1 [Vandetanib] + Cc1nc(NC(=O)N2CCC[C@H]2C(N)=O)sc1-c1ccnc(C(C)(C)C(F)(F)F)c1 [Alpelisib] (partner 2 µM)
Procedure, shortened: as §1

NVP-TAE684 + Dasatinib = compound: COc1cc(N2CCC(N3CCN(C)CC3)CC2)ccc1Nc1ncc(Cl)c(Nc2ccccc2S(=O)(=O)C(C)C)n1 [NVP-TAE684] + Cc1nc(Nc2ncc(C(=O)Nc3c(C)cccc3Cl)s2)cc(N2CCN(CCO)CC2)n1 [Dasatinib] (partner 0.075 µM)
Procedure, shortened: as §1

[2] = compound: C1=CC=C2C(=C1)N=C(S2)C(C#N)C3=NC(=NC=C3)NCCC4=CN=CC=C4 + C[C@]1(O)C[C@@H](c2nc(-c3ccc4ccc(-c5ccccc5)nc4c3)c3c(N)nccn32)C1 [Linsitinib] (partner 1 µM)
Procedure, shortened: as §1

Cell Line	relative viability ([1]; first compound 0.005 µM)	relative viability ([1]; first compound 0.01581 µM)	relative viability ([1]; first compound 0.05 µM)	relative viability ([1]; first compound 0.1581 µM)	relative viability ([1]; first compound 0.5 µM)	relative viability (Vandetanib + Alpelisib; first compound 0.02 µM)	relative viability (Vandetanib + Alpelisib; first compound 0.06325 µM)	relative viability (Vandetanib + Alpelisib; first compound 0.2 µM)	relative viability (Vandetanib + Alpelisib; first compound 0.6325 µM)	relative viability (Vandetanib + Alpelisib; first compound 2 µM)	relative viability (NVP-TAE684 + Dasatinib; first compound 0.2 µM)	relative viability (NVP-TAE684 + Dasatinib; first compound 0.6325 µM)	relative viability (NVP-TAE684 + Dasatinib; first compound 2 µM)	relative viability ([2]; first compound 0.005 µM)	relative viability ([2]; first compound 0.01581 µM)	relative viability ([2]; first compound 0.05 µM)	relative viability ([2]; first compound 0.1581 µM)	relative viability ([2]; first compound 0.5 µM)
201T	0.542	0.674	0.69	0.707	0.56	1.08	0.959	0.985	0.977	0.995	0.703	0.46	0.314	1.07	1.01	1.06	1.06	0.974
A549	–	–	–	–	–	0.686	0.698	0.613	0.751	0.663	–	–	–	0.476	0.684	0.549	0.661	0.595
A-427	0.816	0.727	0.682	0.764	0.645	0.951	1.01	1.11	1.06	1.1	0.789	0.703	0.554	1.05	1.12	1.11	1.17	1.13
ABC-1	0.913	0.809	0.789	0.921	0.848	1.01	0.787	0.95	1.12	0.827	0.584	0.423	0.237	0.979	0.887	1.01	0.962	0.601
BEN	0.759	0.609	0.689	0.85	0.774	0.976	0.897	0.928	1.04	0.867	0.37	0.287	0.28	0.6	0.953	0.885	0.973	0.74
CAL-12T	0.571	0.575	0.628	0.608	0.543	0.993	0.956	1.44	1.26	0.73	0.227	0.111	0.0731	0.76	0.781	0.671	0.991	0.839
COR-L23	–	–	–	–	–	0.701	0.528	0.114	0.773	0.902	0.366	0.301	0.117	0.483	1.14	1.01	1.06	0.682
COR-L 105	–	–	–	–	–	1.04	0.864	0.998	0.932	0.425	0.256	0.202	0.204	0.956	1.04	1.11	1.11	0.992
Calu-6	–	–	–	–	–	0.99	1.01	0.881	0.895	0.843	–	–	–	0.884	0.982	0.89	1.07	0.914
ChaGo-K-1	0.781	0.886	0.911	0.884	0.764	–	–	–	–	–	0.715	0.558	0.413	–	–	–	–	–
EBC-1	–	–	–	–	–	0.81	0.784	0.862	0.809	0.746	–	–	–	1.04	0.871	0.502	1.01	0.812
EKVX	0.704	0.777	0.682	0.85	0.604	0.95	0.873	0.86	0.777	0.424	0.367	0.469	0.202	0.83	1.17	1.06	1.02	0.829
EMC-BAC-2	1.13	1.04	0.945	1.22	0.875	0.737	0.742	0.472	0.712	0.717	0.291	0.292	0.199	0.568	0.877	0.785	0.925	0.728
EPLC-272H	0.307	0.243	0.254	0.25	0.21	0.865	0.814	0.96	0.909	0.997	0.181	0.186	0.0612	1.01	1.3	1.12	1.27	1.12
H3255	0.993	0.876	0.912	0.916	0.829	0.681	0.634	0.602	0.335	0.119	0.318	0.274	0.23	0.89	1.01	0.908	1.05	1.04
HARA	0.2	0.358	0.38	0.275	0.356	0.812	0.76	0.861	0.821	0.537	0.24	0.172	0.141	0.731	0.937	0.934	1.12	0.788
HCC-15	1.02	1.23	1.25	1.51	1.24	0.877	0.84	0.93	0.874	0.793	0.542	0.435	0.28	0.842	0.911	0.926	0.888	0.882
HCC-44	1.12	0.984	1.01	0.997	0.998	0.799	0.812	0.999	0.807	0.762	–	–	–	0.655	0.724	0.696	0.666	0.65
HCC-78	0.619	0.593	0.739	0.697	0.576	0.346	0.32	0.337	0.321	0.288	0.298	0.24	0.306	0.492	0.423	0.33	0.582	0.549
HCC-366	0.199	0.254	0.288	0.279	0.129	0.44	0.289	0.328	0.528	0.226	0.827	0.508	0.233	0.56	0.709	0.693	0.834	0.558
HCC-827	0.201	0.176	0.225	0.235	0.19	1.02	0.986	0.752	0.233	0.167	0.262	0.241	0.124	0.988	0.987	0.961	1.03	0.931
HOP-62	0.271	0.824	0.705	0.542	0.534	0.814	0.836	0.746	0.972	0.993	0.444	0.509	0.201	1.13	1.19	0.919	1.21	0.932
IA-LM	–	–	–	–	–	0.588	0.783	0.791	0.961	0.811	–	–	–	–	0.544	0.32	0.607	0.637

Cell Line	relative viability ([1]; first compound 0.005 µM)	relative viability ([1]; first compound 0.01581 µM)	relative viability ([1]; first compound 0.05 µM)	relative viability ([1]; first compound 0.1581 µM)	relative viability ([1]; first compound 0.5 µM)	relative viability (Vandetanib + Alpelisib; first compound 0.02 µM)	relative viability (Vandetanib + Alpelisib; first compound 0.06325 µM)	relative viability (Vandetanib + Alpelisib; first compound 0.2 µM)	relative viability (Vandetanib + Alpelisib; first compound 0.6325 µM)	relative viability (Vandetanib + Alpelisib; first compound 2 µM)	relative viability (NVP-TAE684 + Dasatinib; first compound 0.2 µM)	relative viability (NVP-TAE684 + Dasatinib; first compound 0.6325 µM)	relative viability (NVP-TAE684 + Dasatinib; first compound 2 µM)	relative viability ([2]; first compound 0.005 µM)	relative viability ([2]; first compound 0.01581 µM)	relative viability ([2]; first compound 0.05 µM)	relative viability ([2]; first compound 0.1581 µM)	relative viability ([2]; first compound 0.5 µM)
LC-2-ad	0.674	0.847	0.83	0.968	0.692	0.815	0.876	0.898	0.802	0.498	0.293	–	0.228	0.886	0.85	0.844	0.878	0.82
LCLC-97TM1	0.153	0.192	0.342	0.291	0.21	0.223	0.243	0.204	0.22	0.209	0.894	0.792	0.275	0.218	0.186	0.175	0.191	0.225
LCLC-103H	0.849	0.784	0.804	0.929	0.779	0.923	0.898	0.983	0.972	0.943	0.568	0.464	0.168	1.03	1.08	1.14	1.09	1.06
LK-2	0.347	0.41	0.488	0.454	0.445	0.951	1.04	1.11	1.16	1.11	0.236	0.243	0.185	0.409	0.736	0.621	0.689	0.555
NCI-H520	–	–	–	–	–	0.832	0.924	1.04	0.868	0.921	0.17	0.196	0.139	0.552	0.97	0.923	1.11	0.735
NCI-H522	0.885	0.654	0.768	0.787	0.839	–	–	–	–	–	1.09	0.983	0.737	–	–	–	–	–
NCI-H661	–	–	–	–	–	0.602	0.565	0.604	0.441	0.582	1.09	0.677	0.622	0.509	0.667	0.545	0.516	0.592
NCI-H1299	–	–	–	–	–	0.956	0.997	1.07	1.09	1.04	–	–	–	0.92	0.99	0.744	1.07	0.912
NCI-H1563	–	–	–	–	–	0.852	0.958	0.88	0.904	0.916	0.443	0.423	0.382	1.27	1.32	1.16	1.2	1.18
NCI-H1623	–	–	–	–	–	–	–	–	–	–	0.514	0.502	0.439	–	–	–	–	–
NCI-H1648	–	0.689	–	0.569	0.604	–	–	–	–	–	–	–	–	–	–	–	–	–
NCI-H1650	–	–	–	–	–	–	–	–	–	–	0.378	0.19	0.137	–	–	–	–	–
NCI-H1703	0.118	0.121	0.123	0.109	0.108	0.306	–	0.347	0.284	0.222	–	–	–	0.547	0.711	–	0.718	0.676
NCI-H2009	–	–	–	–	–	1.16	1.07	1.2	1.15	1.15	0.207	0.157	0.172	1.15	1.22	1.22	1.25	1.07
NCI-H2023	–	–	–	–	–	0.568	0.49	0.732	0.524	0.486	0.393	0.254	0.114	0.743	0.695	0.68	0.671	0.701
NCI-H2170	0.861	0.995	0.861	0.968	0.744	0.782	0.799	0.746	0.805	0.781	0.588	0.477	0.368	–	–	–	–	–
NCI-H2228	–	–	–	–	–	0.75	0.587	–	0.712	0.624	0.206	0.0665	0.0894	0.792	0.762	0.629	0.734	0.634
NCI-H2342	0.546	0.484	0.49	0.583	0.467	–	–	–	–	–	0.297	0.277	0.292	–	–	–	–	–
SK-LU-1	–	–	–	–	–	1.06	0.594	1.02	0.926	0.758	0.188	0.138	0.0928	–	1.08	1.01	1.47	1.07
SK-MES-1	–	–	–	–	–	0.913	0.929	0.86	0.851	0.646	0.317	0.159	0.242	1.17	1.07	1.09	1.12	0.97
SW 900	0.693	0.634	0.548	0.622	0.533	–	–	–	–	–	0.739	0.414	0.397	–	–	–	–	–
SW 1573	–	–	–	–	–	0.75	0.726	0.753	0.969	0.743	0.236	0.227	0.0788	0.725	0.776	0.792	0.895	0.745
